Results: US20240376074A1, “NAMPT INHIBITORS AND USES THEREOF” (Remedy Plan, Inc., priority 2021, published 2024)

Target: T1, NAMPT (Homo sapiens, UniProt P43490)
T1 construct: purchased Abcam ab221819
Experiment: NAMPT Activity Assay (Abcam #ab221819)
Type: biochemical
Details: purified NAMPT, percent inhibition from OD450 nm; compound concentration not given
Method in brief: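 Purified NAMPT preincubated with compound and Reaction Mix #1 at 30*C for 1 hr in a two-step colorimetric kit, followed by Reaction Mix #2. Absorbance at OD450 nm recorded over 5 minutes; percent inhibition relative to no-drug wells.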

T1 sequence (P43490 whole entry): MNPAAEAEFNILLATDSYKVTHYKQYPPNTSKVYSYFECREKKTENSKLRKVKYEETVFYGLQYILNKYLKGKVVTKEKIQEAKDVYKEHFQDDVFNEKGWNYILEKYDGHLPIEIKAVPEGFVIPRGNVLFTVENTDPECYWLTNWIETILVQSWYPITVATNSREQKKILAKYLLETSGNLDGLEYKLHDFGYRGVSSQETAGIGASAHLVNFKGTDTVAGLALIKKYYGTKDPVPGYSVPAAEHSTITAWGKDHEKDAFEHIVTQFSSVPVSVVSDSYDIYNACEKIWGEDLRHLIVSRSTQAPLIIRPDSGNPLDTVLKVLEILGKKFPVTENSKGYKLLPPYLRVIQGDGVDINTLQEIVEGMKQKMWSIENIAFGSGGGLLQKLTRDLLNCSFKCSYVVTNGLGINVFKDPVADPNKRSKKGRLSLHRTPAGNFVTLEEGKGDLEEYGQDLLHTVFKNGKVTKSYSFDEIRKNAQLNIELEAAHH

CC(=O)N(CC1CC1)c1ccc(-c2ccc(C(=O)NCCCc3cn[nH]c3)cn2)cc1C(F)(F)F [I-T2304, 6-[4-[Acetyl(cyclopropylmethyl)amino]-3-(trifluoromethyl)phenyl]-N-[3-(1H-pyrazol-4-yl)propyl]pyridine-3-carboxamide]
NAMPT Inhibition Code*: C (C = ≥66% inhibition)

CC(=O)N(CC(F)F)c1ccc(-c2ccc(C(=O)NCc3ccccc3)cn2)cc1Cl [I-T2284, 6-[4-[Acetyl(2,2-difluoroethyl)amino]-3-chloro-phenyl]-N-benzyl-pyridine-3-carboxamide]
NAMPT Inhibition Code*: A (*A = <33% inhibition)

CC(=O)N(CC1CC1)c1ccc(-c2ccc(C(=O)NCc3cnccn3)cn2)cc1Cl [I-T2154, 6-[4-[Acetyl(cyclopropylmethyl)amino]-3-chloro-phenyl]-N-(pyrazin-2-ylmethyl)pyridine-3-carboxamide]
NAMPT Inhibition Code*: A (*A = <33% inhibition)

COC(=O)c1cc(-c2ccc(C(=O)NCCc3cn[nH]c3)cn2)ccc1N(CC1CC1)C(C)=O [I-T2297, Methyl 2-[acetyl(cyclopropylmethyl)amino]-5-[5-[2-(1H-pyrazol-4-yl)ethylcarbamoyl]-2-pyridyl]benzoate]
NAMPT Inhibition Code*: C (C = ≥66% inhibition)

CC(=O)N(CC1CC1)c1ccc(-c2ccc(C(=O)NCc3ccccc3)cn2)cc1Cl [I-T2113, 6-[4-[Acetyl(cyclopropylmethyl)amino]-3-chloro-phenyl]-N-benzyl-pyridine-3-carboxamide]
NAMPT Inhibition Code*: C (C = ≥66% inhibition)

CC(=O)N(CC1CC1)c1ccc(-c2ccc(C(=O)NCC3CCCCC3)cn2)cc1Cl [I-T2337, 6-[4-[acetyl(cyclopropylmethyl)amino]-3-chloro-phenyl]-N-(cyclohexylmethyl)pyridine-3-carboxamide]
NAMPT Inhibition Code*: C (C = ≥66% inhibition)

CC(=O)N(CC1CC1)c1ccc(-c2ccc(C(=O)NCc3ccc[nH]3)cn2)cc1Cl [I-T2121, 6-[4-[Acetyl(cyclopropylmethyl)amino]-3-chloro-phenyl]-N-(1H-pyrrol-2-ylmethyl)pyridine-3-carboxamide]
NAMPT Inhibition Code*: B (B = >33 to <66% inhibition)
